Holding throughout (type): in vivo
Common to all, as to details: evaluated after 13 days

Assay [1] has as its system Abutilon theophrasti (ABUTH). Put plainly: Pre-emergence herbicidal glasshouse test, Abutilon theophrasti (ABUTH). The procedure: (§1) Seeds of a variety of test species are sown in standard soil in pots (Lolium perenne (LOLPE), Amaranthus retoflexus (AMARE), Abutilon theophrasti (ABUTH), Setaria faberi (SETFA), Echinochloa crus-galli (ECHCG), Ipomoea hederacea (IPOHE)). After cultivation for one day (pre-emergence) or after 8 days cultivation (post-emergence) under controlled conditions in a glasshouse (at 24/16° C., day/night; 14 hours light; 65% humidity), the plants are sprayed with an aqueous spray solution derived from the formulation of the technical active ingredient in acetone/water (50:50) solution containing 0.5% Tween 20 (polyoxyethelyene sorbitan monolaurate, CAS RN 9005-64-5). Compounds are applied at 500 g/h unless otherwise indicated. The test plants are then grown in a glasshouse under controlled conditions in a glasshouse (at 24/16° C., day/night; 14 hours light; 65% humidity) and watered twice daily. After 13 days for pre and post-emergence, the test is evaluated for the percentage damage caused to the plant. The biological activities are shown in the following table on a five point scale (5=80-100%; 4=60-79%; 3=40-59%; 2=20-39%; 1=0-19%).

Assay [2] concerns Echinochloa crus-galli (ECHCG). Put plainly: Pre-emergence herbicidal glasshouse test, Echinochloa crus-galli (ECHCG). The protocol:
as §1

Assay [3] deals with Abutilon theophrasti (ABUTH). Put plainly: Post-emergence herbicidal glasshouse test, Abutilon theophrasti (ABUTH). The procedure:
as §1

In assay [4] the test system is Amaranthus retoflexus (AMARE). Put plainly: Post-emergence herbicidal glasshouse test, Amaranthus retoflexus (AMARE). The protocol: as §1
Assay [5] has as its system Setaria faberi (SETFA). The assay is described as follows: Post-emergence herbicidal glasshouse test, Setaria faberi (SETFA). The protocol:
as §1

Assay [6] deals with Ipomoea hederacea (IPOHE). Put plainly: Pre-emergence herbicidal glasshouse test, Ipomoea hederacea (IPOHE). The procedure:
as §1

Assay [7] deals with Setaria faberi (SETFA). The assay is described as follows: Pre-emergence herbicidal glasshouse test, Setaria faberi (SETFA). The procedure: as §1
The subject of assay [8] is Amaranthus retoflexus (AMARE). The assay is described as follows: Pre-emergence herbicidal glasshouse test, Amaranthus retoflexus (AMARE). The protocol:
as §1

The test system of assay [9] is Echinochloa crus-galli (ECHCG). Put plainly: Post-emergence herbicidal glasshouse test, Echinochloa crus-galli (ECHCG). The procedure:
as §1

Assay [10] relates to Ipomoea hederacea (IPOHE). Put plainly: Post-emergence herbicidal glasshouse test, Ipomoea hederacea (IPOHE). The protocol: as §1

Turning to `Cn1nnnc1NC(=O)c1ccc(C(F)(F)F)c(/N=C/N2CCCC2)c1Cl` [Compound 1.132, 2-chloro-N-(1-methyltetrazol-5-yl)-3-[(E)-pyrrolidin-1-ylmethyleneamino]-4-(trifluoromethyl)benzamide], the “PRE Application ABUTH, percentage damage (five point scale)” value (“PRE Application ABUTH, percentage damage” below) in [1] (500 g/h) is recorded as 5 (5=80-100%). In [2] (500 g/h), the “PRE Application ECHCG, percentage damage (five point scale)” value (from here on “PRE Application ECHCG, percentage damage”) is listed as 5 (5=80-100%). The “POST Application ABUTH, percentage damage (five point scale)” value in [3] (500 g/h) is reported as 5 (5=80-100%). Besides, the “POST Application AMARE, percentage damage (five point scale)” value in assay [4] (500 g/h) was 5 (5=80-100%). Besides, the “POST Application SETFA, percentage damage (five point scale)” value with Setaria faberi (SETFA) [5] (500 g/h) is 5 (5=80-100%). Further, the “PRE Application IPOHE, percentage damage (five point scale)” value (shortened to “PRE Application IPOHE, percentage damage”) in [6] (500 g/h) is 5 (5=80-100%). Also, the “PRE Application SETFA, percentage damage (five point scale)” value (“PRE Application SETFA, percentage damage” below) with Setaria faberi (SETFA) [7] (500 g/h) is 5 (5=80-100%). In addition, the “PRE Application AMARE, percentage damage (five point scale)” value (from here on “PRE Application AMARE, percentage damage”) in assay [8] (500 g/h) is recorded as 5 (5=80-100%). Besides, in [9] (500 g/h), the “POST Application ECHCG, percentage damage (five point scale)” value is 5 (5=80-100%). In [10] (500 g/h), the “POST Application IPOHE, percentage damage (five point scale)” value is given as 5 (5=80-100%).
As to `Cn1nnnc1NC(=O)c1ccc(C(F)(F)F)c(N=CN2CCOCC2)c1Cl` [Compound 1.135], the “PRE Application ABUTH, percentage damage” value in assay [1] (applied at 250 g/ha) is 5 (5=80-100%). In addition, the “PRE Application ECHCG, percentage damage” value in assay [2] (applied at 250 g/ha) is given as 5 (5=80-100%). For the same compound, the “POST Application ABUTH, percentage damage (five point scale)” value in assay [3] (applied at 250 g/ha) is reported as 5 (5=80-100%). In addition, in assay [4] (applied at 250 g/ha), the “POST Application AMARE, percentage damage (five point scale)” value was 5 (5=80-100%). The “POST Application SETFA, percentage damage (five point scale)” value in the assay on Setaria faberi (SETFA) [5] (applied at 250 g/ha) was 5 (5=80-100%). Also, in assay [6] (applied at 250 g/ha), the “PRE Application IPOHE, percentage damage” value is listed as 5 (5=80-100%). In addition, the “PRE Application SETFA, percentage damage” value with Setaria faberi (SETFA) [7] (applied at 250 g/ha) was 5 (5=80-100%). Moreover, in [8] (applied at 250 g/ha), the “PRE Application AMARE, percentage damage” value is reported as 5 (5=80-100%). Further, in [9] (applied at 250 g/ha), the “POST Application ECHCG, percentage damage (five point scale)” value is 3 (3=40-59%). The “POST Application IPOHE, percentage damage (five point scale)” value in [10] (applied at 250 g/ha) is listed as 5 (5=80-100%).
Turning to `CN(C)C(=Nc1c(C(F)(F)F)ccc(C(=O)Nc2nnnn2C)c1Cl)C(F)(F)F` [Compound 1.139], the “PRE Application ABUTH, percentage damage” value in assay [1] (500 g/h) is recorded as 5 (5=80-100%). Besides, in assay [2] (500 g/h), the “PRE Application ECHCG, percentage damage” value is on record as 5 (5=80-100%). Besides, in assay [3] (500 g/h), the “POST Application ABUTH, percentage damage (five point scale)” value is on record as 5 (5=80-100%). The “POST Application AMARE, percentage damage (five point scale)” value in [4] (500 g/h) is given as 5 (5=80-100%). In addition, the “POST Application SETFA, percentage damage (five point scale)” value in the assay with Setaria faberi (SETFA) [5] (500 g/h) is recorded as 5 (5=80-100%). Further, in assay [6] (500 g/h), the “PRE Application IPOHE, percentage damage” value is 5 (5=80-100%). The “PRE Application SETFA, percentage damage” value with Setaria faberi (SETFA) [7] (500 g/h) is 5 (5=80-100%). Further, in assay [8] (500 g/h), the “PRE Application AMARE, percentage damage” value is reported as 5 (5=80-100%). In assay [9] (500 g/h), the “POST Application ECHCG, percentage damage (five point scale)” value is on record as 5 (5=80-100%). In assay [10] (500 g/h), the “POST Application IPOHE, percentage damage (five point scale)” value is on record as 4 (4=60-79%).
Regarding `CC(C)N(C)C=Nc1c(C(F)(F)F)ccc(C(=O)Nc2nnnn2C)c1Cl` [Compound 1.140], the “PRE Application ABUTH, percentage damage” value in assay [1] (500 g/h) is recorded as 5 (5=80-100%). The “PRE Application ECHCG, percentage damage” value in assay [2] (500 g/h) is recorded as 5 (5=80-100%). Moreover, the “POST Application ABUTH, percentage damage (five point scale)” value in assay [3] (500 g/h) is reported as 5 (5=80-100%). The “POST Application AMARE, percentage damage (five point scale)” value in [4] (500 g/h) is listed as 5 (5=80-100%). In addition, the “POST Application SETFA, percentage damage (five point scale)” value with Setaria faberi (SETFA) [5] (500 g/h) is on record as 5 (5=80-100%). Also, the “PRE Application IPOHE, percentage damage” value in [6] (500 g/h) was 5 (5=80-100%). Also, the “PRE Application SETFA, percentage damage” value in the assay with Setaria faberi (SETFA) [7] (500 g/h) is 5 (5=80-100%). Further, in assay [8] (500 g/h), the “PRE Application AMARE, percentage damage” value is listed as 5 (5=80-100%). Moreover, in [9] (500 g/h), the “POST Application ECHCG, percentage damage (five point scale)” value was 5 (5=80-100%). Also, in assay [10] (500 g/h), the “POST Application IPOHE, percentage damage (five point scale)” value is given as 5 (5=80-100%).

(Values after patent publication US11272709B2, “Amidine substituted benzoyl derivatives useful as herbicides” (Syngenta Participations AG, priority 2018, dated 2022).)
